Reference: PMC5702336, “Critical Role of Hepatic Cyp450s in the Testis-Specific Toxicity of (5R)-5-Hydroxytriptolide in C57BL/6 Mice” (Frontiers in Pharmacology, 2017)

Assay: Toxicokinetics of LLDT-8 in WT and liver-Cpr KO mice after a single oral dose (plasma and tissue levels by LC-MS/MS)
Format: in vivo, mouse
Settings: for T1/2: mean ± SD, n = 5
Experimental: For toxicokinetic experiments, mice (n = 5–6/group for each time point) were treated with a single dose of LLDT-8 at (0.5 or 1.0 mg/kg) by oral gavage, creating 4 treatment groups: 0.5 mg/kg LLDT-8-treated WT and KO mice, and 1.0 mg/kg LLDT-8-treated WT and KO mice. After LLDT-8 treatment, 20 μL blood samples were collected at 5, 10, 20, 30, 45, 60, 90, 120, and 180 min from tail vein. Plasma was separated by centrifugation at 3,000 rpm for 5 min and kept at −80°C until analysis. Tissues including the liver, kidney, testes, and epididymis were also collected from individual mice at 30 and 180 min after dosing and were weighed and homogenized in saline (1.0 g wet weight/mL) on ice. LLDT-8 was then extracted from the plasma or the tissue homogenates with an equal volume of ethyl acetate and dried under nitrogen. The residues were reconstituted in 50 μL of mobile phase for analysis.
The quantification of LLDT-8 in samples was performed on Shimadzu 20A HPLC system (Shimadzu, Kyoto, Japan) equipped with an autosampler coupled to Shimadzu 8030 triple quadrupole mass spectrometer (Shimadzu, Kyoto, Japan). Separations were conducted under isocratic conditions. The mobile phase consisting of acetonitrile and water with 0.1% formic acid (50:50, v/v) was set at a flow rate of 0.2 mL/min. An electrospray interface in negative ionization mode was used. ESI source parameters were as followed: high purity drying-gas (N2) flow rate 8 L/min, temperature 400°C, nebulizer pressure 25 psi. Multiple reaction monitoring (MRM) was used to quantify LLDT-8 (m/z 421.20 [M+COO]- → 45.10, fragmentor 110 eV, collision energy −20 eV). Analytical data were processed using the labsolution software package (Shimadzu, Kyoto, Japan) consisting of qualitative and quantitative software.
Standard curves for LLDT-8 were prepared by spiking known amounts of the LLDT-8 standard into plasma or tissue homogenate samples prepared from untreated mice. LLDT-8 concentrations in biological samples were determined by comparisons with standard curves. Pharmacokinetics were calculated using Kinetica software (version 4.4.1; Thermo Fisher Scientific Inc, Woburn, MA).

[1] = KO mice, plasma, 1.0 mg/kg single oral dose
[2] = WT mice, plasma, 1.0 mg/kg single oral dose

CC(C)[C@]12O[C@H]1[C@@H]1O[C@]13[C@]1(O[C@H]1C[C@@]1(O)C4=C(CC[C@]31C)C(=O)OC4)[C@@H]2O [LLDT-8, (5R)-5-hydroxytriptolide]
LLDT-8 levels in liver, kidney, testis and epididymis of KO mice relative to WT mice (30 min after 1.0 mg/kg oral dose): 2–3 folds
AUC [1]: 753.52 ± 76.39 [ng/ml] × h
CL (oral clearance) [1]: 22.2 ± 2 mL/min/kg
Cmax [1]: 57.97 ± 8.28 ng/mL
Tmax [1]: 19.8 ± 6.6 min
T1/2 [1]: 35.4 ± 3.6 min
CL (oral clearance) [2]: 68.8 ± 8.83 mL/min/kg
Cmax [2]: 29.95 ± 2.81 ng/mL
Tmax [2]: 10.2 ± 0 min
T1/2 [2]: 18.6 ± 1.8 min
clearance in KO mice compared to WT mice (single oral dose): marked decrease
increase in AUC in KO mice (single oral dose, KO vs WT): 3.1 folds to WT mice
increase in Cmax in KO mice (single oral dose, KO vs WT): 1.9 folds to WT mice
increase in half-life in KO mice (single oral dose, KO vs WT): 1.9 folds to WT mice
